pIC50: −log10 of the molar value. Like-named read-outs stand apart in the source and are kept apart here.
Assays:
Format in all cases: cell-based
A549 cells = assay: in vitro antiproliferation assay, A549 (lung)
Outline: (§1)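 Standard in vitro antiproliferation assays on tumour cell lines, including A549 and H1299 (both lung); IC50 values determined.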

PC3 = assay: in vitro antiproliferation assay, PC3 (prostate)
Method: (§2) The IC50 values of various compounds against a various different tumor cell lines were determined using standard in vitro antiproliferation assays. The tumor cell lines tested were as follows: A549 (lung); H1299 (lung), ACHN (kidney/p53 wt), CAKI (renal cell carcinoma), NCI-H460 (lung); HCT116 (colon/p53w0; HELA (cervix/p53 wt), HUH7 (liver/p53 wt), HUVEC (primary endothelial), LNCAP (prostate), HT-29 (colon); MCF-7 (breast); MCF-7 (breast/ER positive), MDA MB435S (breast); MDA MB231 (breast/ER negative), DU145 (prostate); BxPC-3 (pancreatic); SKOV-3 (ovarian); HepG2 (hepatic), NDHF primary normal human dermal fibroblast), SKMEL28 (breast/p53mut), SKMEL5 (breast/p53 wt), U20S (bone) and PC3 (prostate). […] A blank indicates the specified compound was not tested against the specified cell line.
(§3) Many of the compounds were tested against other cell lines. Their activity is reported in TABLE 15, below, where +”, “−”, “−/+” or “+/−” values are as described for TABLES 1-14. Where the cell line includes a value in a parenthetical, the value indicates the seeding density at which the assay was performed

H1299 cells = assay: in vitro antiproliferation assay, H1299 (lung)
Outline: as §1

HCT116 = assay: in vitro antiproliferation assay, HCT116 (colon)
Method: as §2, §3

[1] = in vitro antiproliferation, A549 (lung) cells, Table 4, compounds with no designated stereochemistry tested as racemate
[2] = IC50 class against A549 (lung) tumor cells
[3] = IC50 class against H1299 (lung) tumor cells
[4] = HCT116 (colon), read-out: HCT116
[5] = Table 5, in vitro antiproliferation, A549 (lung) cells
[6] = Table 5, in vitro antiproliferation, H1299 (lung) cells
[7] = Table 7, in vitro antiproliferation, A549 (lung) cells
[8] = Table 7, in vitro antiproliferation, H1299 (lung) cells
[9] = Table 7, in vitro antiproliferation, colon cells, read-out: HTC116

Compound | pIC50 (PC3) | pIC50 (HCT116; [4]) | pIC50 (A549 cells; [5]) | other results
CNC(=O)COc1cccc(Nc2ncc(F)c(Nc3ccc4c(c3)NC(=O)C(C)O4)n2)c1 (racemic) [compound 256] | ≥ 4.70 | – | – | pIC50 (A549 cells; [1]): ≥ 4.70
COC(=O)N1CCN(c2ccc(Nc3ncc(F)c(NC4CC4)n3)cc2)CC1 [compound 104] | – | < 4.70 | – | pIC50 (A549 cells; [2]): ≥ 4.70; pIC50 (H1299 cells; [3]): ≥ 4.70
O=C(COc1cccc(Nc2ncc(F)c(NC3CCC3)n2)c1)NC1CC1 [compound 110] | – | ≥ 4.70 | – | pIC50 (A549 cells; [2]): ≥ 4.70; pIC50 (H1299 cells; [3]): ≥ 4.70
Fc1cnc(Nc2ccc(Cl)c(Cl)c2)nc1NC1CCC1 [compound 111] | – | ≥ 4.70 | – | pIC50 (A549 cells; [2]): ≥ 4.70; pIC50 (H1299 cells; [3]): ≥ 4.70
COc1ccc(Nc2ncc(F)c(NC3CCC3)n2)cc1Cl [compound 112] | – | ≥ 4.70 | – | pIC50 (A549 cells; [2]): ≥ 4.70; pIC50 (H1299 cells; [3]): ≥ 4.70
O=C1COc2ccc(Nc3nc(Nc4cccc(O)c4)ncc3F)cc2N1 [compound 254] | ≥ 4.70 | – | – | pIC50 (A549 cells; [1]): ≥ 4.70
Cc1c(Cl)cc(Nc2ncc(F)c(Nc3ccc4c(c3)NC(=O)C(C)(C)O4)n2)cc1Cl [compound 306] | – | < 4.70 | – | pIC50 (A549 cells; [1]): ≥ 4.70; pIC50 (H1299 cells; in vitro antiproliferation, H1299 (lung) cells, Table 4, compounds with no designated stereochemistry tested as racemate): ≥ 4.70
CNC(=O)COc1cccc(Nc2ncc(F)c(Nc3ccc4c(n3)NC(=O)CO4)n2)c1 [compound 418] | ≥ 4.70 | – | – | –
O=C(COc1cccc(Nc2ncc(F)c(Nc3ccc4c(c3)OCCO4)n2)c1)N1CCOCC1 [compound 493] | – | > 4.70 | > 4.70 | pIC50 (H1299 cells; [6]): ≥ 4.70
Fc1cnc(Nc2cccc(OCCN3CCOCC3)c2)nc1Nc1ccc2c(c1)OCCO2 [compound 494] | – | ≥ 4.70 | ≥ 4.70 | pIC50 (H1299 cells; [6]): ≥ 4.70
CNC(=O)COc1cccc(Nc2ncc(F)c(Nc3ccc4c(c3)OCCO4)n2)c1 [compound 495] | – | ≥ 4.70 | > 4.70 | pIC50 (H1299 cells; [6]): ≥ 4.70
Fc1cnc(Nc2cccc(OCCN3CCOCC3)c2)nc1Nc1ccc2c(c1)OCCO2 [compound 500] | < 4.70 | – | – | –
CNC(=O)COc1ccc(Nc2ncc(F)c(Nc3ccc4c(c3)OCCO4)n2)cc1 [compound 501] | < 4.70 | – | < 4.70 | –
Fc1cnc(Nc2ccc(OCCN3CCOCC3)cc2)nc1Nc1ccc2c(c1)OCCO2 [compound 502] | < 4.70 | – | < 4.70 | –
O=C(COc1cccc(Nc2ncc(F)c(Nc3ccc4c(c3)OCCO4)n2)c1)NC1CCCCC1 [compound 508] | < 4.70 | – | < 4.70 | –
CN(CCO)C(=O)COc1cccc(Nc2ncc(F)c(Nc3ccc4c(c3)OCCO4)n2)c1 [compound 509] | < 4.70 | – | < 4.70 | –
CN(C)CCOc1cccc(Nc2ncc(F)c(Nc3ccc4c(c3)OCCO4)n2)c1 [compound 510] | < 4.70 | – | < 4.70 | –
CC(C)c1ccc(Nc2ncc(F)c(Nc3ccc4c(c3)OCCO4)n2)cc1 [compound 511] | ≥ 4.70 | – | < 4.70 | –
CNC(=O)COc1cccc(Nc2ncc(F)c(Nc3ccc4c(c3)OCCO4)n2)c1 [compound 516] | ≥ 4.70 | – | – | –
OCc1cc(CO)cc(Nc2ncc(F)c(Nc3ccc4c(c3)OCCO4)n2)c1 [compound 529] | – | ≥ 4.70 | ≥ 4.70 | pIC50 (H1299 cells; [6]): ≥ 4.70
COC(=O)COc1cccc(Nc2ncc(F)c(Nc3ccc4c(c3)OCCCO4)n2)c1 [compound 580] | < 4.70 | – | < 4.70 | –
CNC(=O)c1cc2cc(Nc3ncc(F)c(Nc4ccc(C(C)(C)C)cc4)n3)ccc2o1 [compound 642] | ≥ 4.70 | – | – | –
CN(C)C(=O)c1cc2cc(Nc3ncc(F)c(Nc4cccc(O)c4)n3)ccc2o1 [compound 643] | < 4.70 | – | – | pIC50 (A549 cells; [7]): < 4.70
COc1cc(Nc2nc(Nc3cccc4cc(C(=O)N(C)CCO)[nH]c34)ncc2F)cc(OC)c1 [compound 659] | – | – | – | pIC50 (A549 cells; [7]): ≥ 4.70; pIC50 (H1299 cells; [8]): ≥ 4.70; pIC50 (HCT116; [9]): ≥ 4.70
COc1cc(Nc2nc(Nc3cccc4cc(C(=O)NC(C)(C)CO)[nH]c34)ncc2F)cc(OC)c1 [compound 660] | – | – | – | pIC50 (A549 cells; [7]): ≥ 4.70; pIC50 (H1299 cells; [8]): ≥ 4.70; pIC50 (HCT116; [9]): ≥ 4.70
CCOC(=O)c1cc2cccc(Nc3ncc(F)c(NCCO)n3)c2[nH]1 [compound 667] | – | – | – | pIC50 (A549 cells; [7]): < 4.70; pIC50 (H1299 cells; [8]): < 4.70; pIC50 (HCT116; [9]): < 4.70
COC(=O)c1cc2cc(Nc3ncc(F)c(Nc4ccc5c(c4)NC(=O)C(F)(F)O5)n3)ccc2o1 [compound 676] | ≥ 4.70 | – | – | pIC50 (A549 cells; [7]): ≥ 4.70
CNC(=O)COc1cccc(Nc2ncc(F)c(Nc3ccc(OC(F)(F)F)c(Cl)c3)n2)c1 [compound 699] | < 4.70 | – | – | pIC50 (A549 cells; A549 (lung) cells, in vitro antiproliferation): ≥ 4.70

From patent US8809341B2, “2,4-pyrimidinediamine compounds and uses as anti-proliferative agents” (Rigel Pharmaceuticals, Inc., priority 2003, dated 2014)
